Laboratory results from patent US6894047B2, “Triazine compounds useful as sorbitol dehydrogenase inhibitors” (Pfizer Inc., priority 2001, dated 2005).

Structure (SMILES)	melting point [°C]
COc1nc(C)nc(N2C(C)CN(c3ncnc(CO)n3)CC2C)n1 (stereo not drawn) [Example 12, 1-{4-[4-(4-methoxy-6-methyl-[1,3,5]triazin-2-yl)-3R,5S-dimethyl-piperazin-1-yl]-[1,3,5]triazin-2-yl}-methanol]	155 to 160
CC(O)c1ncnc(N2CC(C)N(c3nc(O)nc(-c4ccccc4)n3)C(C)C2)n1 (stereo not drawn) [Example 14, 1-{4-[4-(4-Hydroxy-6-phenyl-[1,3,5]triazin-2-yl)-3R,5S-dimethyl-piperazin-1-yl]-[1,3,5]triazin-2-yl}-ethanol]	> 275
Cc1nc(O)nc(N2C(C)CN(c3ncnc(C(C)O)n3)CC2C)n1 (stereo not drawn) [Example 15, 1-{4-[4-(4-Hydroxy-3-methyl-[1,3,5]triazin-2-yl)-3R,5S-dimethyl-piperazin-1-yl]-[1,3,5]triazin-2-yl}-ethanol]	263 to 265

Further lines, results first:

melting point [°C]	Structure (SMILES)
206 to 207	CC1CN(c2ncnc(CO)n2)CC(C)N1c1ncnc(-c2ccccc2)n1 (stereo not drawn) [Example 10, 1-{4-[4-(4-phenyl-[1,3,5]triazin-2-yl)-3R,5S-dimethyl-piperazin-1-yl]-[1,3,5]triazin-2-yl}-methanol]
224 to 225	CC1CN(c2ncnc(CO)n2)CC(C)N1c1ncnc(CO)n1 (stereo not drawn) [Example 11, 1-{4-[4-(4-Hydroxymethyl-[1,3,5]triazin-2-yl)-3R,5S-dimethyl-piperazin-1-yl]-[1,3,5]triazin-2-yl}-methanol]
197 to 198	CC1CN(c2ncnc(-c3ccccc3)n2)CC(C)N1c1ncnc(CO)n1 (stereo not drawn) [Example 16, 1-{4-[4-(4-Phenyl-[1,3,5]triazin-2-yl)-2R,6S-dimethyl-piperazin-1-yl]-[1,3,5]triazin-2-yl}-methanol]
